Data as given in the supplement of paper PMC11451515.

Test system: NOMO1
Assay: cell viability relative to DMSO control; higher = less cytotoxic
Conditions: 48 h
In short: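 NOMO1, SEM and P12-Ichikawa leukemia cells spent at least four passages adapting to each medium before use. They were seeded at 500 cells/well (NOMO1, SEM) or 1000 cells/well (P12-Ichikawa) in 5 μl in 1536-well plates and pin-dosed with library compounds in DMSO at 11 threefold steps from 47 μM down to 0.79 nM. After 48 h at 37°C, CellTiter-Glo One luminescence was read. Viability is reported as a percentage of the DMSO wells on each plate, with cell-free wells as background.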

[1] = HPLM + 10% dialyzed FBS, 0.000781 µM
[2] = HPLM + 10% dialyzed FBS, 0.00234 µM
[3] = HPLM + 10% dialyzed FBS, 0.00702 µM
[4] = HPLM + 10% dialyzed FBS, 0.0211 µM
[5] = HPLM + 10% dialyzed FBS, 0.0632 µM
[6] = HPLM + 10% dialyzed FBS, 0.19 µM
[7] = HPLM + 10% dialyzed FBS, 0.569 µM
[8] = HPLM + 10% dialyzed FBS, 1.71 µM
[9] = HPLM + 10% dialyzed FBS, 5.12 µM
[10] = HPLM + 10% dialyzed FBS, 15.4 µM
[11] = HPLM + 10% dialyzed FBS, 46.1 µM
[12] = RPMI 5 mM glucose + 10% FBS, 0.000781 µM
[13] = RPMI 5 mM glucose + 10% FBS, 0.00234 µM
[14] = RPMI 5 mM glucose + 10% FBS, 0.00702 µM
[15] = RPMI 5 mM glucose + 10% FBS, 0.0211 µM
[16] = RPMI 5 mM glucose + 10% FBS, 0.0632 µM
[17] = RPMI 5 mM glucose + 10% FBS, 0.19 µM
[18] = RPMI 5 mM glucose + 10% FBS, 0.569 µM
[19] = RPMI 5 mM glucose + 10% FBS, 1.71 µM
[20] = RPMI 5 mM glucose + 10% FBS, 5.12 µM
[21] = RPMI 5 mM glucose + 10% FBS, 15.4 µM
[22] = RPMI 5 mM glucose + 10% FBS, 46.1 µM
[23] = RPMI 5 mM glucose + 10% dialyzed FBS, 0.000781 µM
[24] = RPMI 5 mM glucose + 10% dialyzed FBS, 0.00234 µM
[25] = RPMI 5 mM glucose + 10% dialyzed FBS, 0.00702 µM
[26] = RPMI 5 mM glucose + 10% dialyzed FBS, 0.0211 µM
[27] = RPMI 5 mM glucose + 10% dialyzed FBS, 0.0632 µM
[28] = RPMI 5 mM glucose + 10% dialyzed FBS, 0.19 µM
[29] = RPMI 5 mM glucose + 10% dialyzed FBS, 0.569 µM
[30] = RPMI 5 mM glucose + 10% dialyzed FBS, 1.71 µM
[31] = RPMI 5 mM glucose + 10% dialyzed FBS, 5.12 µM
[32] = RPMI 5 mM glucose + 10% dialyzed FBS, 15.4 µM
[33] = RPMI 5 mM glucose + 10% dialyzed FBS, 46.1 µM

SMILES	cell viability [1]	cell viability [2]	cell viability [3]	cell viability [4]	cell viability [5]	cell viability [6]	cell viability [7]	cell viability [8]	cell viability [9]	cell viability [10]	cell viability [11]	cell viability [12]	cell viability [13]	cell viability [14]	cell viability [15]	cell viability [16]	cell viability [17]	cell viability [18]	cell viability [19]	cell viability [20]	cell viability [21]	cell viability [22]	cell viability [23]	cell viability [24]	cell viability [25]	cell viability [26]	cell viability [27]	cell viability [28]	cell viability [29]	cell viability [30]	cell viability [31]	cell viability [32]	cell viability [33]
CCC(C)N1\N=C/N(C1=O)C2=CC=C(C=C2)N3CCN(CC3)C4=CC=C(OC[C@H]5CO[C@@](C[N]6C=NC=N6)(O5)C7=CC=C(Cl)C=C7Cl)C=C4 (some centres not stated)	110%	98.9%	117%	121%	122%	97.2%	108%	102%	107%	90.4%	86%	101%	108%	113%	99.6%	111%	121%	93.9%	101%	102%	95.3%	85.8%	102%	104%	119%	124%	111%	113%	120%	103%	98.9%	99.6%	86.2%
Cc1c(-c2cccc3c(CCCOc4cccc5ccccc45)c(C(=O)O)n(Cc4cccnc4)c23)c(COc2ccc(N3CCN([S+](=O)([O-])N(C)C)CC3)cc2)nn1C	88.7%	85.4%	83.8%	94.1%	108%	86.3%	85.9%	74.2%	89.2%	73.8%	55.4%	92.5%	97.3%	80.4%	85.7%	87.9%	94.7%	90.5%	87.8%	74.9%	79.3%	85.2%	97%	97.1%	92.5%	96.1%	95.9%	94.1%	86%	76.7%	81.4%	84.7%	72.5%
O=C(CC12CC3CC(CC(C3)C1)C2)Nc1cccc2nc(NCCNCCO)ccc12	79.1%	95.5%	89.4%	106%	98%	90.7%	101%	89.8%	103%	90.7%	36.6%	81.2%	89.8%	83.9%	87.8%	82.4%	90.5%	81%	87.4%	86.4%	96.4%	54.1%	73.5%	90.7%	83.2%	97.2%	86.7%	80.5%	82.4%	82.3%	77.4%	95.3%	57.7%
C[C@H]1C[C@H]2[C@@H]3CC[C@](O)(C(=O)CO)[C@@]3(C)C[C@H](O)[C@@H]2[C@@]\4(C)/C=C\C(=O)\C=C14	82.1%	110%	115%	104%	113%	115%	92.3%	89.9%	89.6%	94.1%	95.6%	81.4%	95.3%	90.6%	101%	104%	97.1%	93.1%	89.5%	89.5%	88.4%	92.8%	72.9%	88.5%	91.4%	102%	102%	93.1%	100%	90.4%	101%	105%	84.6%
O=C(CCCCCCC(=O)Nc1ccc([C@H]2O[C@@H](CSc3nc(-c4ccccc4)c(-c4ccccc4)o3)C[C@@H](c3ccc(CO)cc3)O2)cc1)NO												120%	135%	117%	124%	117%	131%	127%	111%	108%	12.5%	5.57%											
CC(C)=CCC/C(C)=C/CC/C(C)=C/CSc1ccccc1C(=O)O	93.2%	119%	104%	104%	116%	102%	90.4%	68.8%	76.4%	57.4%	29.8%	103%		104%	103%	96.1%	99.1%	96.2%	95.2%	86.8%	67.9%	43.5%	98.2%	103%	109%	106%	116%	97%	87%	77.1%	61.8%	64%	39.3%
N[S+](=O)([O-])c1cc2c(cc1Cl)NC(C(Cl)Cl)N[S+]2(=O)[O-] (configuration not stated)	96.9%	107%	113%	117%	111%	135%	136%	130%	121%	125%	124%	105%	96.1%	105%	107%	102%	103%	123%	108%	102%	125%	110%	112%	114%	109%	118%	112%	118%	120%	126%	125%	141%	120%
CC(=O)OC[C@H]1O[C@@H]([S-])[C@H](OC(C)=O)[C@@H](OC(C)=O)[C@@H]1OC(C)=O.CCP(CC)CC.[Au+]	80.7%	84.3%	96.5%	92%	75.9%	93.7%	96.7%	93.8%	31.5%	7.92%	5.33%	86.7%	99.2%	85.4%	96.4%	98.4%	104%	106%	89.8%	18.8%	6.15%	5%	88.3%	96.7%	90.5%	96.2%	91.7%	94.5%	95.4%	88.7%	40.8%	5.52%	4.43%
C/C(=N\NC(=S)N1CCC1)c1ccccn1	104%	76.1%	48.5%	29.9%	20.8%	6.85%	5.67%	4.05%	2.98%	15.2%	5.74%	107%	96.5%	74.6%	15.3%	13%	7.95%	6.53%	8.3%	2.84%	13.7%	11.8%	99.3%	93.6%	37.7%	19.6%	17.9%	8.08%	6.69%	5.23%	2.95%	8.3%	13.1%
O=C/1NC(=O)C(=C1C2=CN=C3C=CC=C[N]23)/C4=C[N]5CCN(CC6=C5C4=CC=C6)C(=O)N7CCOCC7												109%	121%	137%	136%	140%	146%	144%	127%	144%	128%	144%											
CCOc1cc2ncc(C#N)c(Nc3ccc(F)c(Cl)c3)c2cc1NC(=O)/C=C/CN(C)C	120%	133%	111%	114%	127%	84.9%	80.9%	57%	50.8%	42.7%	4.8%	118%	128%	116%	124%	123%	118%	102%	85.6%	66.2%	76.3%	10.4%											
N\C1=N\C2=C(N=C[N]2COCCO)C(=O)N1	93.1%	106%	123%	112%	103%	119%	104%	125%	98.3%	102%	73.4%	106%	96.8%	109%	109%	103%	95.4%	98.1%	103%	103%	97.4%	96.9%	112%	101%	103%	97.8%	93.8%	113%	106%	109%	107%	100%	71.5%
CCc1cc2c(cc1N1CCC(N3CCOCC3)CC1)C(C)(C)c1[nH]c3cc(C#N)ccc3c1C2=O	83.9%	68.5%	94.7%	117%	135%	151%	134%	121%	105%	102%	68.3%	91.1%	83.2%	102%	119%	126%	132%	124%	112%	117%	114%	58.8%	80.3%	73.9%	71.7%	107%	125%	133%	120%	111%	115%	110%	52.1%
CC(C)(F)C[C@H](N[C@@H](c1ccc(-c2ccc([S+](C)(=O)[O-])cc2)cc1)C(F)(F)F)C(=O)NC1(C#N)CC1	91.5%	113%	111%	113%	108%	103%	107%	116%	111%	94.6%	89.8%	124%	136%	125%	124%	119%	116%	109%	115%	106%	97.5%	102%	105%	125%	117%	121%	103%	108%	112%	109%	101%	101%	92.3%
CN(C)c1ccc2nc3ccc(N(C)C)cc3[s+]c2c1	115%	94.5%	122%	97.9%	106%	90.7%	102%	91.1%	73.2%	25.9%	12.1%	96%	91.9%	89.2%	92.1%	93.4%	93.6%	100%	86.4%	78.1%	7.62%	3.06%	102%	99.7%	99.6%	87.4%	94.2%	86.7%	102%	86.5%	65%	10.1%	3.9%
O=C(CS(=O)Cc1ccco1)NC/C=C\COc1cc(CN2CCCCC2)ccn1 (configuration not stated)	85%	105%	101%	102%	93.3%	113%	93.8%	98.9%	89%	94.1%	92.9%	89.7%	87.5%	97.2%	95.7%	87.1%	98.2%	87.8%	89.3%	94.8%	93.3%	92.8%	90%	103%	95%	108%	105%	103%	108%	97.4%	90.9%	105%	99.4%
